From paper PMC5053573, “Structure-Based Design of Tetrahydroisoquinoline-7-carboxamides as Selective Discoidin Domain Receptor 1 (DDR1) Inhibitors” (Journal of Medicinal Chemistry, 2016)

Tests used:
Assay in all cases: biochemical
Settings in all cases: read-out: %Ctrl @ 1000nM
ACVR2B = ACVR2B (Homo sapiens, UniProt Q13705)
AKT1 = AKT1 (Homo sapiens, UniProt P31749)
ALK(C1156Y) = ALK(C1156Y) (Homo sapiens, UniProt Q9UM73, C1156Y)
AURKA = AURKA (Homo sapiens, UniProt O14965)
CAMKK1 = CAMKK1 (Homo sapiens, UniProt Q8N5S9)
CAMKK1, sequence (Q8N5S9 whole entry): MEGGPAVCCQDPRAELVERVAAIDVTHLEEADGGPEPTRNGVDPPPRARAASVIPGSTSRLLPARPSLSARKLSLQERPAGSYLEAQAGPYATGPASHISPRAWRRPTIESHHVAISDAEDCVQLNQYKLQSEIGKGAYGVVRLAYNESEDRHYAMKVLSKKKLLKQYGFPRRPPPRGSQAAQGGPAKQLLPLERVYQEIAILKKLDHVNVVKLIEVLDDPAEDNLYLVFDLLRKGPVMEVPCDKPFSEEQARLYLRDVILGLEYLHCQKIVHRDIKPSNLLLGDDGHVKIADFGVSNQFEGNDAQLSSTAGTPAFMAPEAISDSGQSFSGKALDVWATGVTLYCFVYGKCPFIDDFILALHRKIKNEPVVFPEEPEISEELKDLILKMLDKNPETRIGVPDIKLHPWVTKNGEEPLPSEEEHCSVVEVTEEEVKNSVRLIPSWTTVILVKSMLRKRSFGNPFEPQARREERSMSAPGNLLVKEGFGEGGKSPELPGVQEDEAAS

CDK2 = CDK2 (Homo sapiens, UniProt P24941)
CDK4 = CDK4 (Homo sapiens, UniProt P11802)
CDKL3 = CDKL3 (Homo sapiens, UniProt Q8IVW4)
CSNK1A1L = CSNK1A1L (Homo sapiens, UniProt Q8N752)
CSNK1A1L, sequence (Q8N752 whole entry): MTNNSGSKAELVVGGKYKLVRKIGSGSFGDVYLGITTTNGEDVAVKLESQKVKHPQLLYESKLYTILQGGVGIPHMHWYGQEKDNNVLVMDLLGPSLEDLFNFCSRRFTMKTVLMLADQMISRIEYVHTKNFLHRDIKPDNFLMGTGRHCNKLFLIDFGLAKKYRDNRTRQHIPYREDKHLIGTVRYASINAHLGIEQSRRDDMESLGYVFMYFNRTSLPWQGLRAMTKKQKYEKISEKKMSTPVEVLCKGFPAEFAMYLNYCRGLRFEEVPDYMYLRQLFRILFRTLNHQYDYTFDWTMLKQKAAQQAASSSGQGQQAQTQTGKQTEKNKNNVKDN

EPHB4 = EPHB4 (Homo sapiens, UniProt P54760)
ERBB3 = ERBB3 (Homo sapiens, UniProt P21860)
HIPK3 = HIPK3 (Homo sapiens, UniProt Q9H422)
IKK-alpha = target: T1, IKK-alpha (Homo sapiens, UniProt O15111)
T1 construct: gene CHUK

KIT(A829P) = KIT(A829P) (Homo sapiens, UniProt P10721, A829P)
MAK = MAK (Homo sapiens, UniProt P20794)
MARK3 = MARK3 (Homo sapiens, UniProt P27448)
MEK1 = target: T2, MEK1 (Homo sapiens, UniProt Q02750)
T2 construct: gene MAP2K1

MET(Y1235D) = MET(Y1235D) (Homo sapiens, UniProt P08581, Y1235D)
MYO3A = MYO3A (Homo sapiens, UniProt Q8NEV4)
NEK10 = NEK10 (Homo sapiens, UniProt Q6ZWH5)
PCTK1 = target: T3, PCTK1 (Homo sapiens, UniProt Q00536)
T3 construct: gene CDK16
T3 sequence (Q00536 whole entry): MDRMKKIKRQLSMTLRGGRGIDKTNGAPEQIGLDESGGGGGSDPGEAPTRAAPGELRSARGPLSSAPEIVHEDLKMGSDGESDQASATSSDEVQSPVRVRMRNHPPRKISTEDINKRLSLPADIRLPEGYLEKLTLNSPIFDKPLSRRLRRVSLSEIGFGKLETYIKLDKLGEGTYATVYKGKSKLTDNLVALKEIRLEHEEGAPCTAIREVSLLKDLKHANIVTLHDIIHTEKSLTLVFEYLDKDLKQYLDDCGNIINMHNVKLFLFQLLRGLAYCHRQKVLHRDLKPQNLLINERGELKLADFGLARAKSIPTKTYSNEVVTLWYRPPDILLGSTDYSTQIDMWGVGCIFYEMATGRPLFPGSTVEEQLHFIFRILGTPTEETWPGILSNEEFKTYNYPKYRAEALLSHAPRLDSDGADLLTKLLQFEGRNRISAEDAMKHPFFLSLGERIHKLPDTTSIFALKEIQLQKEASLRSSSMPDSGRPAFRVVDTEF

PFTK1 = target: T4, PFTK1 (Homo sapiens, UniProt O94921)
T4 construct: gene CDK14
T4 sequence (O94921 whole entry): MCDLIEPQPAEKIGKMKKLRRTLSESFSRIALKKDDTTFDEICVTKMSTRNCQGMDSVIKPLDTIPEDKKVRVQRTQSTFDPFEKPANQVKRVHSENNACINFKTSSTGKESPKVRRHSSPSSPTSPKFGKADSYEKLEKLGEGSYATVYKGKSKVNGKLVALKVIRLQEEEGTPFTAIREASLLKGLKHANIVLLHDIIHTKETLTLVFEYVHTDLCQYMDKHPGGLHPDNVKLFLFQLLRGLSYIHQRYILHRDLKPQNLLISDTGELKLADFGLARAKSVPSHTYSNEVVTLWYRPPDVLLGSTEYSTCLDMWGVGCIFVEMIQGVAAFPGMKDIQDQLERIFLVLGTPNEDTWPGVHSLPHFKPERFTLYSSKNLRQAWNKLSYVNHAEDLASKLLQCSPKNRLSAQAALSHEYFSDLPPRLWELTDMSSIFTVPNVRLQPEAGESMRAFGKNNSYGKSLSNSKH

PIK3CA = PIK3CA (Homo sapiens, UniProt P42336)
PIK3CA, sequence (P42336 whole entry): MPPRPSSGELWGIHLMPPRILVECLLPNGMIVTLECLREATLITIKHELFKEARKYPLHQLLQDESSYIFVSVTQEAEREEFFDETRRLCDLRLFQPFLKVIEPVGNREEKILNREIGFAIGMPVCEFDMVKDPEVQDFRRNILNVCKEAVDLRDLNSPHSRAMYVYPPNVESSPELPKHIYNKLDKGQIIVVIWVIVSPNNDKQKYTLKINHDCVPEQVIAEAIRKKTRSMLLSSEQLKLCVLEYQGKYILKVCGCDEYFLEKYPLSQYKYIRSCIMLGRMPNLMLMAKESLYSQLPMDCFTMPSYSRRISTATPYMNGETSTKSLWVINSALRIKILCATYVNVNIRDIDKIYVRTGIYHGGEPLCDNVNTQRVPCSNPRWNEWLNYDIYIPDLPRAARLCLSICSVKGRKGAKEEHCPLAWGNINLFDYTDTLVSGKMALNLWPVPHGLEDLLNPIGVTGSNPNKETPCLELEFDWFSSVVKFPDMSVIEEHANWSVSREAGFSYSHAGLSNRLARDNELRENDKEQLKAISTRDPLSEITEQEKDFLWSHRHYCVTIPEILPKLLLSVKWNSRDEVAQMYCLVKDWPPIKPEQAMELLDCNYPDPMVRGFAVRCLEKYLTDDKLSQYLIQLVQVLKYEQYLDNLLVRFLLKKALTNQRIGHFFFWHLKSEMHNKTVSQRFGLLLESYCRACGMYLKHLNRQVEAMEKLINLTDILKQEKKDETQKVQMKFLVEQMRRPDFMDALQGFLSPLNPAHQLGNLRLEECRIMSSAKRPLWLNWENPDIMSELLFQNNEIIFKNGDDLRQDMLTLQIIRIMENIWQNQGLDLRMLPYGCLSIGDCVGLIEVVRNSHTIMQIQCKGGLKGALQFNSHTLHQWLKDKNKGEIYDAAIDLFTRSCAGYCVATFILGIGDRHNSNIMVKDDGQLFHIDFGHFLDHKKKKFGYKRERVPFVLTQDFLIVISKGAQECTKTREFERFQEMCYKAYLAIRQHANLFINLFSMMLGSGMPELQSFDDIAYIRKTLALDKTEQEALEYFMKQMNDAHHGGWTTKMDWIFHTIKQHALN

PIK3CA(E545A) = PIK3CA(E545A) (Homo sapiens, UniProt P42336, E545A)
PIK3CA(E545A), sequence (P42336 whole entry E545A): as the sequence (P42336 whole entry) above, with E545A counted along it

PIK3CA(I800L) = PIK3CA(I800L) (Homo sapiens, UniProt P42336, I800L)
PIK3CA(I800L), sequence (P42336 whole entry I800L): as the sequence (P42336 whole entry) above, with I800L counted along it

PIK3CA(M1043I) = PIK3CA(M1043I) (Homo sapiens, UniProt P42336, M1043I)
PIK3CA(M1043I), sequence (P42336 whole entry M1043I): as the sequence (P42336 whole entry) above, with M1043I counted along it

PKN2 = PKN2 (Homo sapiens, UniProt Q16513)
PLK1 = PLK1 (Homo sapiens, UniProt P53350)
PRKCH = PRKCH (Homo sapiens, UniProt P24723)
PRKX = PRKX (Homo sapiens, UniProt P51817)
PRKX, sequence (P51817 whole entry): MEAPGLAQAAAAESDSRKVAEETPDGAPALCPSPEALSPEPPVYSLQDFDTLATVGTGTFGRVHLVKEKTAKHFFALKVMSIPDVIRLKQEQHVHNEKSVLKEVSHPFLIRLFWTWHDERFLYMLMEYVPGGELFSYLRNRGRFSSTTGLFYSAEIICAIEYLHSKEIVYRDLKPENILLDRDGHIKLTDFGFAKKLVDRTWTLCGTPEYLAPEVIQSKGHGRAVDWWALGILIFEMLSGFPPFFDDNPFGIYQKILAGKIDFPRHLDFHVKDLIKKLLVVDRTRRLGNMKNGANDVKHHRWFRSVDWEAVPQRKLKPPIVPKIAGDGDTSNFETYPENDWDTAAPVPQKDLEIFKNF

ROS1 = ROS1 (Homo sapiens, UniProt P08922)
[1] = target: T5, RSK1(Kin.Dom.1-N-terminal) (Homo sapiens, UniProt Q15418)
T5 construct: gene RPS6KA1

[2] = target: T6, RSK2(Kin.Dom.1-N-terminal) (Homo sapiens, UniProt P51812)
T6 construct: gene RPS6KA3

SRMS = SRMS (Homo sapiens, UniProt Q9H3Y6)
TBK1 = TBK1 (Homo sapiens, UniProt Q9UHD2)

ALK(C1156Y), sequence (Q9UM73 whole entry C1156Y): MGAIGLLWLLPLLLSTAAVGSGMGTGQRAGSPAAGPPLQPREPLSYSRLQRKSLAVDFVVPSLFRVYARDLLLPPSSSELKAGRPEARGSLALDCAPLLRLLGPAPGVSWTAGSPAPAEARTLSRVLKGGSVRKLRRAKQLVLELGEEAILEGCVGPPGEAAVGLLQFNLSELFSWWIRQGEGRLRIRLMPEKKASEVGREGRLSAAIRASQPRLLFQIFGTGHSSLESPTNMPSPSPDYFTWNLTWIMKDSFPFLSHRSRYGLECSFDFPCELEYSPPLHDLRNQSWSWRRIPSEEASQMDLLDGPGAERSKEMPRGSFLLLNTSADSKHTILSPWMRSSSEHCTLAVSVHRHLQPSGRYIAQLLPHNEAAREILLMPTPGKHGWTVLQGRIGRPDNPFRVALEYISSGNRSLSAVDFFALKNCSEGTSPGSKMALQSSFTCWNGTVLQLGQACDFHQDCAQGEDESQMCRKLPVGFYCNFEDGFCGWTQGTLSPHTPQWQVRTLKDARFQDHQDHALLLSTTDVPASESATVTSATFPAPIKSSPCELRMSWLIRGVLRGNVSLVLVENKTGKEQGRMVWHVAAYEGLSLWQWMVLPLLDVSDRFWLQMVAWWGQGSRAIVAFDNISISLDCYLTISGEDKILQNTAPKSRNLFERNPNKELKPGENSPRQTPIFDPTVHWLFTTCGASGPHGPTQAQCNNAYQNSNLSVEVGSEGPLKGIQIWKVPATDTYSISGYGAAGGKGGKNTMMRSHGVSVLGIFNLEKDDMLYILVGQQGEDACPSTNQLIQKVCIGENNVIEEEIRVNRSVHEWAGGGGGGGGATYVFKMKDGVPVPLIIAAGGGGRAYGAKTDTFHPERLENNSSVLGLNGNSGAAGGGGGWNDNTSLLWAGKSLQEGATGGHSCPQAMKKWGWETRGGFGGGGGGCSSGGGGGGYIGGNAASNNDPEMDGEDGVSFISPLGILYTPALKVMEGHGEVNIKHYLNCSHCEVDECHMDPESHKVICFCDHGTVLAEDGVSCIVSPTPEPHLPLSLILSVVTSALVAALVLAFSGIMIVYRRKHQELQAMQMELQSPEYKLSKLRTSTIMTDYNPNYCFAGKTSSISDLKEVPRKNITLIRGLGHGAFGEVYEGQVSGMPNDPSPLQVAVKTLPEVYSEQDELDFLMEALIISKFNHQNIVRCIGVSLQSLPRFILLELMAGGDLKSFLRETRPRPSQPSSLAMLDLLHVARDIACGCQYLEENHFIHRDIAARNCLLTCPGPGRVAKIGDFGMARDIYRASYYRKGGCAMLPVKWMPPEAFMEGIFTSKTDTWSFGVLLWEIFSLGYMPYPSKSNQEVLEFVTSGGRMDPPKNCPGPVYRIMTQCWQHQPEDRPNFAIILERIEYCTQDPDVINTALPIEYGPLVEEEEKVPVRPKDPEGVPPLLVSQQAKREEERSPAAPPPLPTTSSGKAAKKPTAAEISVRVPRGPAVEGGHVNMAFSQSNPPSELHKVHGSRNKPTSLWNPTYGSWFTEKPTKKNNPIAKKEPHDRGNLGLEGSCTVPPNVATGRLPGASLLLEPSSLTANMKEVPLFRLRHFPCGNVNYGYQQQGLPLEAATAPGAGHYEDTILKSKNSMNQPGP

- remaining activity at 1 µM (ACVR2B): 93%
- remaining activity at 1 µM (AKT1): 96%
- remaining activity at 1 µM (ALK(C1156Y)): 100%
- remaining activity at 1 µM (AURKA): 96%
- remaining activity at 1 µM (CAMKK1): 64%
- remaining activity at 1 µM (CDK2): 86%
- remaining activity at 1 µM (CDK4): 98%
- remaining activity at 1 µM (CDKL3): 100%
- remaining activity at 1 µM (CSNK1A1L): 69%
- remaining activity at 1 µM (EPHB4): 76%
- remaining activity at 1 µM (ERBB3): 100%
- remaining activity at 1 µM (HIPK3): 86%
- remaining activity at 1 µM (IKK-alpha): 100%
- remaining activity at 1 µM (KIT(A829P)): 100%
- remaining activity at 1 µM (MAK): 95%
- remaining activity at 1 µM (MARK3): 94%
- remaining activity at 1 µM (MEK1): 94%
- remaining activity at 1 µM (MET(Y1235D)): 68%
- remaining activity at 1 µM (MYO3A): 93%
- remaining activity at 1 µM (NEK10): 100%
- remaining activity at 1 µM (PCTK1): 100%
- remaining activity at 1 µM (PFTK1): 94%
- remaining activity at 1 µM (PIK3CA): 100%
- remaining activity at 1 µM (PIK3CA(E545A)): 86%
- remaining activity at 1 µM (PIK3CA(I800L)): 100%
- remaining activity at 1 µM (PIK3CA(M1043I)): 93%
- remaining activity at 1 µM (PKN2): 95%
- remaining activity at 1 µM (PLK1): 97%
- remaining activity at 1 µM (PRKCH): 97%
- remaining activity at 1 µM (PRKX): 96%
- remaining activity at 1 µM (ROS1): 86%
- remaining activity at 1 µM [1]: 96%
- remaining activity at 1 µM [2]: 100%
- remaining activity at 1 µM (SRMS): 100%
- remaining activity at 1 µM (TBK1): 95%
Structure (SMILES): Cc1cn(-c2cc(NC(=O)c3ccc4c(c3)CN(c3cncnc3)C[C@@H]4C)cc(C(F)(F)F)c2)cn1 [Compound 6j]
